In patent US6716613B1, “Metalloprotease having aggrecanase activity” (Yamanouchi Pharmaceutical Co., Ltd., priority 1999, dated 2004):

B1: MDTS6Dis: protein of amino acids 1st to 518th position of SEQ ID NO:1 with the polypeptide of SEQ ID NO:33 added to the C-terminus (protein)
chain: FVSIPRYVETLVVADESMVKFHGADLEHYLLTLLATAARLYRHPSILNPINIVVVKVLLLRDRDSGPKVTGNAALTLRNFCAWQKKLNKVSDKHPEYWDTAILFTRQDLCGATTCDTLGMADVGTMCDPKRSCSVIEDDGLPSAFTTAHELGHVFNMPHDNVKVCEEVFGKLRANHMMSPTLIQIDRANPWSACSAAIITDFLDSGHGDCLLDQPSKPISLPEDLPGASYTLSQQCELAFGVGSKPCPYMQYCTKLWCTGKAKGQMVCQTRHFPWADGTSCGEGKLCLKGACVERHNLNKHRVDGSGSAAADYKDDDDK
B2: MDTS6Cys: protein of amino acids 1st to 687th position of SEQ ID NO:1 with the polypeptide of SEQ ID NO:33 added to the C-terminus (protein)
chain: FVSIPRYVETLVVADESMVKFHGADLEHYLLTLLATAARLYRHPSILNPINIVVVKVLLLRDRDSGPKVTGNAALTLRNFCAWQKKLNKVSDKHPEYWDTAILFTRQDLCGATTCDTLGMADVGTMCDPKRSCSVIEDDGLPSAFTTAHELGHVFNMPHDNVKVCEEVFGKLRANHMMSPTLIQIDRANPWSACSAAIITDFLDSGHGDCLLDQPSKPISLPEDLPGASYTLSQQCELAFGVGSKPCPYMQYCTKLWCTGKAKGQMVCQTRHFPWADGTSCGEGKLCLKGACVERHNLNKHRVDGSWAKWDPYGPCSRTCGGGVQLARRQCTNPTPANGGKYCEGVRVKYRSCNLEPCPSSASGKSFREEQCEAFNGYNHSTNRLTLAVAWVPKYSGVSPRDKCKLICRANGTGYFYVLAPKVVDGTLCSPDSTSVCVQGKCIKAGCDGNLGSKKRFDKCGVCGGDNKSCKKVTGGSAAADYKDDDDK
B3: MDTS6Pro: protein of amino acids 1st to 447th position of SEQ ID NO:1 with the polypeptide of SEQ ID NO:33 added to the C-terminus (protein)
chain: FVSIPRYVETLVVADESMVKFHGADLEHYLLTLLATAARLYRHPSILNPINIVVVKVLLLRDRDSGPKVTGNAALTLRNFCAWQKKLNKVSDKHPEYWDTAILFTRQDLCGATTCDTLGMADVGTMCDPKRSCSVIEDDGLPSAFTTAHELGHVFNMPHDNVKVCEEVFGKLRANHMMSPTLIQIDRANPWSACSAAIITDFLDSGHGDCLLDQPSKPISLPEDLPGASYTLSQQGSAAADYKDDDDK

Assays:
[1] = system: rabbit knee joint cartilage primary culture cells; test: Proteoglycan degradation/release in rabbit knee joint cartilage primary culture cells (35S label); type: cell-based; conditions: stimulation with 0.01 to 10 ng/ml IL-1β or 0.1 to 10 μM all-trans retinoic acid; 0, 24, 48 hours of culturing
Description: After killing a rabbit (Japanese white species, male, 1.0 to 1.5 kg) under excess anesthesia, a knee joint was excised and the cartilage layer on the joint surface was removed and finely cut using a surgical knife. The cut pieces were treated with trypsin-EDTA (0.25%-1 mM; mfd. by GIBCO-BRL) at 37° C. for 1 hour and then centrifuged at 1,500 rpm for 5 minutes, and the resulting precipitate was washed with DMEM. This was treated with collagenase A (0.15%; Boehringer-Mannheim)/DMEM at 37° C. for 3 to 4 hours, and then a nylon mesh filter (100 μm, mfd. by Falcon)-passed fraction was centrifuged at 1,500 rpm for 5 minutes to effect precipitation of cartilage cells. The cells were thoroughly washed with DMEM/10% FBS medium, suspended in DMEM/10% FBS medium to a density of 2×10^5 cells/ml and then inoculated in 200 μl/well portions into an I type collagen-coated 96 well plate (mfd. by Asahi Technoglass). Three days thereafter, the medium was changed to 200 μof DMEM/10% FBS medium containing 50 μg/ml of ascorbic acid (ascorbic acid medium hereinafter), and the culturing was continued for 3 days. When an I type collagen-coated 6 well plate (Asahi Technoglass) was used, the cell suspension was inoculated in 6 ml/well portions and cultured by carrying out the same medium exchange. These cells were used in the following test.
The rabbit knee joint cartilage primary culture cells of 96 well plate described in Example 11-1 were cultured for 2 days using 200 μl of the ascorbic acid medium supplemented with 10 μCi/ml in final concentration of Na2^35SO4 and labeled therewith, washed 3 times with 200 μl of the ascorbic acid medium and then cultured for 1 day using 200 μl of the ascorbic acid medium. After stimulation with IL-1β or all-trans retinoic acid and subsequent 0, 24, and 48 hours of culturing, the culture supernatants were recovered in 20 μl portions, and the radioactivity was measured using Top Count (mfd. by Packard).
Each of the compounds A, B, C and D selected by the screening system of Example 10-2 was added to the proteoglycan degradation system of rabbit knee joint cartilage primary culture cells just before the stimulation with 10 μM of all-trans retinoic acid, and their proteoglycan degradation inhibitory activities were examined.

MDTS6 mRNA [2] = test: Induction of MDTS6 mRNA expression in rabbit knee joint cartilage primary culture cells (RT-PCR); type: cell-based; conditions: 10 ng/ml of IL-1β or 10 μM of all-trans retinoic acid; 2 and 6 hours
Description: After 3 days of culturing of the rabbit knee joint cartilage primary culture cells of 6 well plate described in Example 11-1 by changing the medium to ascorbic acid medium, 10 ng/ml of IL-1β or 10 μM of all-trans retinoic acid was added thereto, and total RNA samples 2 and 6 hours thereafter were prepared using ISOGEN (mfd. by Nippon Gene) in accordance with the attached instructions. Each of the samples was treated with DNase I (mfd. by Nippon Gene), subjected to phenol/chloroform treatment and then recovered by ethanol precipitation, and the thus purified total RNA was dissolved in DEPC-treated sterile water. Using random hexamers as primers, 1 μg of this total RNA was subjected to reverse transcription reaction and RNase H treatment using Thermoscript™ RT-PCR System (mfd. by GIBCO-BRL, catalog number 11146-016) in accordance with the attached instructions, and the product was diluted 10 times with sterile water and used as a cDNA sample. Using 5 μl of each of the thus obtained cDNA samples as the template and the oligoDNA sequences represented by SEQ ID NO:18 and SEQ ID NO:19 as primers, PCR was carried out under a condition of 94° C. for 2 minutes, 45 repetitions of a cycle of 94° C. for 30 seconds, 65° C. for 30 seconds and 72° C. for 30 seconds, and subsequent 72° C. for 10 minutes. […]

MDTS6 mRNA [3] = test: Expression induction of MDTS6 mRNA in ATDC5 cells (RT-PCR); type: cell-based, mouse; conditions: insulin-differentiated, IL-1β 5 ng/ml for 0, 1, 2, 4 or 8 hours
Description: It is known that a mouse cell strain ATDC5 is differentiated into a chondrocyte-like cell by insulin treatment (Atsumi T. et al., Cell Differ. Dev., 30, 109-116, 1990). The ATDC5 cells were inoculated in 4×10^5/well portions into an I type collagen-coated 6 well plate (mfd. by Asahi Technoglass) and cultured for 2 days using DMEM/HamF12 (1:1)/5% FCS medium, the medium was changed to DMEM/HamF12 (1:1)/5% FCS medium containing insulin (final concentration 30 ng/ml) and 50 μg/ml of L-ascorbic acid and the culturing was continued for 5 days, and then the resulting cells were treated for 0, 1, 2, 4 or 8 hours by adding IL-1β (final concentration 5 ng/ml). Total RNA was prepared from each of the treated groups using ISOGEN (mfd. by Nippon Gene), and RT-PCR was carried out using 1 μg portion thereof as the template and using BcaBEST™ RNA PCR Kit (mfd. by Takara Shuzo). The reverse transcription reaction was carried out using Oligo dT-Adaptor Primer as the primer in accordance with the attached instructions, and PCR was carried out using oligoDNA sequences represented by SEQ ID NO:15 and SEQ ID NO:16 as primers, which had been synthesized based on the 3′ non-translation region of MDTS6, by the reaction of 94° C. for 2 minutes, 40 repetitions of a cycle of 94° C. for 30 seconds, 60° C. for 30 seconds and 72° C. for 30 seconds, and subsequent 72° C. for 7 minutes. […]

[4] = system: recombinant aggrecan G1G2; test: Recombinant aggrecan G1G2 degradation by expressed MDTS6 proteins (western blotting); type: biochemical, human; conditions: method of Example 7-3, anti-aggrecanase neoepitope antibody
Description: In Example 6, the medium 12 to 16 hours after introduction of the expression plasmid was replaced by a serum-free medium, and the culturing was continued for 32 to 36 hours to recover the culture supernatant. This culture supernatant was mixed with the recombinant aggrecan prepared in the foregoing, and the mixture was allowed to undergo the reaction at 37° C. overnight, subjected to SDS-PAGE, transferred on a PVDF membrane and blocked by the method described in Example 6 and then allowed to react with an anti-Hisx6 polyclonal antibody (sc-803; mfd. by Santa Cruz Biotechnology) and a horseradish peroxidase-labeled goat anti-rabbit IgG polyclonal antibody (mfd. by BML) in that order. After the reaction, the recombinant aggrecan was detected using an ECL western blotting system (mfd. by Amersham Pharmacia). As a result, degraded fragment of the recombinant aggrecan, which was not found in the control in which only the […] was introduced, was detected (FIG. 2).
Aggrecanase is a metalloprotease which selectively cleaves aggrecan at the site between Glu^373 -Ala^374. An antibody capable of recognizing a C-side neoepitope generated by this cleavage was prepared in accordance with a usual method by repeating immunization of mouse with a conjugate of the synthetic peptide represented by SEQ ID NO:32 and KLH, 5 times. A PVDF membrane after transfer and blocking carried out in the same manner as in Example 7-2 was allowed to react with this antibody, allowed to react with a peroxidase-labeled goat anti-mouse IgG polyclonal antibody (mfd. by Tago) and then detected using an ECL western blotting detection system (mfd. by Amersham Pharmacia). As a result, the degraded product of recombinant aggrecan generated by MDTS6 reacted with the anti-aggrecanase neoepitope antibody, and molecular weight of the detected band is consistent with the molecular weight of the degraded product detected in Example 7-2 (FIG. 3). The same result was obtained by the BC-3 antibody which recognizes aggrecanase neoepitope (Hughes C. E. et al., Biochemical J., 305, 799-804, 1995). […]

Molecule	release of proteoglycan (increase in radioactivity of culture supernatant) [1]	expression of the MDTS6 mRNA (MDTS6 mRNA [2])	expression of the MDTS6 mRNA (MDTS6 mRNA [3])	aggrecanase activity in culture supernatant [4]
IL-1β: cytokine used to stimulate proteoglycan release and MDTS6 mRNA expression	increase in the radioactivity, namely release of proteoglycan, was observed	induced	transiently induced	–
CC1=C(/C=C/C(C)=C/C=C/C(C)=C/C(=O)O)C(C)(C)CCC1 [all-trans retinoic acid, reference compound]	concentration-dependent and strong radioactivity, namely release of proteoglycan, was observed	induced	–	–
B1	–	–	–	not detected
B2	–	–	–	detected
B3	–	–	–	not detected
